Test results from paper PMC6315694, “Synthesis of Pseudellone Analogs and Characterization as Novel T-type Calcium Channel Blockers” (Marine Drugs, 2018).

Target: T1, recombinant hCaV3.1 channels (Homo sapiens, UniProt O43497)
T1 construct: host or cells: probably the CHO line expressing CaV3.1 (inferred: the transient HEK293T cells are assigned to FLIPR)
Experiment: Whole-cell patch-clamp QPatch 16 X, CaV3.1
Type: cell-based
Experimental: The human embryonic kidney 293 (HEK 293) cell lines (from Emmanuel Bourinet, Montpellier, France) stably expressing CaV3.2 or CaV3.3 were cultured under 5% carbon dioxide at 37 °C in Dulbecco’s Modified Eagle Medium (DMEM) Glutamax (Gibco, Life Technologies, Carlsbad, CA, USA) supplemented with 10% (v/v) fetal bovine serum (FBS), 100 U/mL penicillin, 100 μg/mL streptomycin (Gibco, Life Technologies), and 750 μg/mL geneticin (G418) (Gibco, Life Technologies). The Chinese Hamster Ovary (CHO) cell lines (Emmanuel Bourinet, Montpellier, France) expressing CaV3.1 were cultured under 5% carbon dioxide at 37 °C in Alpha Minimum Essential Media (MEM) Glutamax (Gibco, Life Technologies), supplemented with 10% (v/v) fetal bovine serum (FBS) and 300 μg/mL geneticin (G418) (Gibco, Life Technologies). The human neuroblastoma SH-SY5 Y cells (Victor Diaz, Goettingen, Germany) were cultured under 5% carbon dioxide at 37 °C in RPMI 1640 antibiotic-free medium (Invitrogen, Carlsbad, CA, USA), supplemented with 15% FBS and 2 mM GlutaMAX™ (Invitrogen). D-PBS (Gibco, Life Technologies) was used to wash the cells, and 0.25% Trypsin-EDTA (Gibco, Life Technologies) was used to detach cells from the flask surface. They were split in a ratio of 1:5 (ideally 1000 cells/cm^2) when they reached 70%–80% confluence (every 2–3 days). Transiently transfected CaV3.1HEK293 T cells were used in FLIPR Assays. HEK 293 T cells were cultured under 5% carbon dioxide at 37 °C in DMEM supplemented with 10% (v/v) FBS. D-PBS was used to wash the cells, and 0.25% Trypsin-EDTA was used to detach cells from the flask surface. The cells were split and seeded at 6 million cells per T175 flask, to reach 70%–80% confluence after 24 h. The next day, 12 μg DNA of human CaV3.1 was incubated in 900 μL serum-free DMEM with 36 μL FuGENE HD transfection reagent (Promega Corporation, Madison, WI, US) (1:3 DNA/Fugene ratio) for 20 min, and then the mixture was added into the cell flask slowly, drop by drop. […]
Data were plotted and analyzed using GraphPad Prism v7.0 (GraphPad Software Inc., San Diego, CA, USA). […]

T1 sequence (O43497 whole entry): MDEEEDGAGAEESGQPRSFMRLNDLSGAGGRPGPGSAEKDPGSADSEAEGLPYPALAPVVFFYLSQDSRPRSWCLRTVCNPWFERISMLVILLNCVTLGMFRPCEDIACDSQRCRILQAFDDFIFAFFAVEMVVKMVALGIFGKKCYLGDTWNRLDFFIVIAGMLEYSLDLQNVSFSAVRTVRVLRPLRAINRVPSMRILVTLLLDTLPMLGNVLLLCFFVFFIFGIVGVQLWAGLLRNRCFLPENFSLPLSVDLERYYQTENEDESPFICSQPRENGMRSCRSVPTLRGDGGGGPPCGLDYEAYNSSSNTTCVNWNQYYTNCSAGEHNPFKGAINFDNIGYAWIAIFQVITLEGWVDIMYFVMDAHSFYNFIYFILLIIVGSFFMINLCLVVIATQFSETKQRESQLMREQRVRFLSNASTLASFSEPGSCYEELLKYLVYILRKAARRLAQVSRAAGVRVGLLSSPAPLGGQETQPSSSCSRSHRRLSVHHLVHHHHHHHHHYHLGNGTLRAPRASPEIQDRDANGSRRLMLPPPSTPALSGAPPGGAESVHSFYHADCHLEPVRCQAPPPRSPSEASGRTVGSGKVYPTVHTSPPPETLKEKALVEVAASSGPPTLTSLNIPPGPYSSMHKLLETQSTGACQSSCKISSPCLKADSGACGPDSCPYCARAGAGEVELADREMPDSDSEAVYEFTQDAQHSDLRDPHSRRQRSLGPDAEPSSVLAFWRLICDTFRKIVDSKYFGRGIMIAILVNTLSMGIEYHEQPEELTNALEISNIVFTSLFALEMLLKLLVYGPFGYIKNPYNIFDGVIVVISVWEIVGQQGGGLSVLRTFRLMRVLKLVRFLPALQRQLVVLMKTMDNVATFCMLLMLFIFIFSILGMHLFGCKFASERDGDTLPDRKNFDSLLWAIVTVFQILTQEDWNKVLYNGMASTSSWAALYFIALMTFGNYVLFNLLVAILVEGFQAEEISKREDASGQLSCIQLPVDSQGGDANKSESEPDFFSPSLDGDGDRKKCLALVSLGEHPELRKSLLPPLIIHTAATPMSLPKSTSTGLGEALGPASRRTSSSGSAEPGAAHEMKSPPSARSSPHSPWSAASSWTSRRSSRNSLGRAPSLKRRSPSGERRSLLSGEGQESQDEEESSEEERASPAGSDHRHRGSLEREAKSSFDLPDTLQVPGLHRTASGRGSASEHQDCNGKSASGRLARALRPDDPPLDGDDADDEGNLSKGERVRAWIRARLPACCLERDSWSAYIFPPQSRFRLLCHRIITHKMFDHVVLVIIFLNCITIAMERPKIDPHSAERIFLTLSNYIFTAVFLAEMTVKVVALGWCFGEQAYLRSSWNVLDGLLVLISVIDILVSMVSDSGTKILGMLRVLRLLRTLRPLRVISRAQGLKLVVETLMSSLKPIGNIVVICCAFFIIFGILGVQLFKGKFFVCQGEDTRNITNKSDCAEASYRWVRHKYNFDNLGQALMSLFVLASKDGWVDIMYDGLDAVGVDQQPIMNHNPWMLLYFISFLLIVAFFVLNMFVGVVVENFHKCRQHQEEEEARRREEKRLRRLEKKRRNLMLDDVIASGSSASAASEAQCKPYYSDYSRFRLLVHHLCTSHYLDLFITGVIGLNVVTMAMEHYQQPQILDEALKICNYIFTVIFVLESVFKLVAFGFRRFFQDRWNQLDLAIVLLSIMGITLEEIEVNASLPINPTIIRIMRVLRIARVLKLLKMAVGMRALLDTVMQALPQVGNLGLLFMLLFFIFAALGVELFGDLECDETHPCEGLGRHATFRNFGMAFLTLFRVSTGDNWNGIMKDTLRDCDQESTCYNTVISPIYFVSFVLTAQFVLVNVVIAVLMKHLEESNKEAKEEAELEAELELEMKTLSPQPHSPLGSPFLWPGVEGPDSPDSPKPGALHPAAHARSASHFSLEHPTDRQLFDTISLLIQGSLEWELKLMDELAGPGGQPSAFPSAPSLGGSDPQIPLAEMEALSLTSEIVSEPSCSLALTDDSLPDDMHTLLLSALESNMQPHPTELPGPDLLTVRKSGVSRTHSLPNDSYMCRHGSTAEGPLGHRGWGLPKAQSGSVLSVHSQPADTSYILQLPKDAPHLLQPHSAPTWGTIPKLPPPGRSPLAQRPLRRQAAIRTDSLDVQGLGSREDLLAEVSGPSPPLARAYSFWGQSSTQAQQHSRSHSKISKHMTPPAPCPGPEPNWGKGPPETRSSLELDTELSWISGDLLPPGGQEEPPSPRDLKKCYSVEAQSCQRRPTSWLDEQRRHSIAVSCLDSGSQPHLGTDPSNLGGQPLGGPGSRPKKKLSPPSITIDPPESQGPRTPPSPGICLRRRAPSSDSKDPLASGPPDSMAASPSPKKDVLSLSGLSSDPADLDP

- Potency for CaV3.1-activated currents relative to CaV3.1 window currents (QPatch versus FLIPR, better for activated currents): > 7 fold
- Emax (QPatch whole-cell, partial block, read-out: Emax value, block of CaV3.1 current): 82.8 ± 2.55%
- Voltage-dependence of steady-state inactivation of CaV3.1, in words (QPatch, in the presence of compound): not significantly shifted
Structure (SMILES): COC(=O)[C@H](Cc1c[nH]c2ccccc12)NC(=O)C(C)(c1c[nH]c2ccccc12)c1c[nH]c2ccccc12 [Compound 3, Methyl (2,2-di(1H-indol-3-yl)propanoyl)-L-tryptophanate]
